Here are results for 1 substance from US9012407B2, “Therapies which act on neuropeptide S receptors” (The Regents of the University of California, priority 2004, dated 2015).

One experiment deals with C57Bl/6 mice. The experiment in a line: Locomotor activity after i.c.v. administration in naive and habituated mice. It counts as in vivo. As to conditions: for locomotor activity: naive and habituated mice, 60 min observation. How it is done:
In view of the NPSR sites of expression and the prominent expression of the NPS precursor in LC area, we hypothesized that NPS may be involved in arousal and anxiety. To start this investigation, we tested the effects of NPS on locomotor activity in both naive and habituated mice (FIG. 7A).
Male C57Bl/6 mice (National Cancer Institute, Bethesda, MD), age 10-14 weeks, were group-housed (4 animals per cage) under controlled conditions (temperature 21±2° C.; relative humidity 50-60%; 12-hour light-dark cycle, lights on 6:00 AM) with free access to food and water. Prior to drug injections, mice were briefly anesthetized with halothane. NPS was dissolved in phosphate-buffered saline (PBS, pH 7.4) and injected i.c.v. (total volume: 2 μl) as described before (Laursen and Belknap, 1986). Mice were allowed to recover for 5 min and then placed in the observation apparatus.
Locomotion was monitored in rectangular plexiglass boxes (60×40×50 cm). Horizontal activity was measured over 60 min by 18×12 infrared sensors placed 2 cm above the floor. A second row of sensors at 8 cm above the floor was used to record rearing events. The imaginary central zone was defined as a 30×20 cm rectangle in the middle of each observation area. Data were collected using MatLab (Mathworks, Natick, Mass.). Experimental procedures for open field, elevated plus-maze and light-dark box were described previously (Köster et al., 1999). Marble burying was measured in mice placed individually in polypropylene cages (30×18×12 cm) containing 18 glass marbles (1.5 cm diameter) evenly spaced on 5 cm deep rodent bedding (bed-o'cob, The Andersons Inc., Maumee, Ohio) (Njung'e and Handley, 1991). No food or water was present during the observation period. Cages were covered with a metal grid and the number of marbles covered at least two-thirds was counted after 30 min.

The target of experiment [1] is T1, NPSR Ile^107 (Homo sapiens, UniProt Q6W5P4, N107I).
T1 construct: The Ile^107 isoform of NPSR was generated by PCR using synthetic oligonucleotides and the Quik Change Site-Directed Mutagenesis kit from Stratagene; expressed in transfected cells
T1 sequence (Q6W5P4 1-371 N107I): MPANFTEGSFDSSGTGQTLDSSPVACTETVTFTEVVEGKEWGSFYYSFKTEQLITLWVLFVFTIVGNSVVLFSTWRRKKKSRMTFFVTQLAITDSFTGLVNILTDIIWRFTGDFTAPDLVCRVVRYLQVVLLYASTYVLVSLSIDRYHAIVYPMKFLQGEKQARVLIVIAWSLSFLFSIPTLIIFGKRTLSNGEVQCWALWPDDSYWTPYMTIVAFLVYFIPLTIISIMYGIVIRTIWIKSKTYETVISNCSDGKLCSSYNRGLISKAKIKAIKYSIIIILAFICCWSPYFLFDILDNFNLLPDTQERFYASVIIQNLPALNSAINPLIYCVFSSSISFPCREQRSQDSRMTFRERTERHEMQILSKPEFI
The experiment in a line: Intracellular Ca2+ mobilization (FLIPR) in HEK 293 cells stably expressing NPSR Ile107. It counts as cell-based. As to conditions: Ca2+ mobilization, cAMP formation or MAPK phosphorylation. How it is done:
Changes of agonist-induced intracellular Ca^2+ were measured using the FLIPR technology as described before (5, 6). NPS and truncated NPS peptides were a gift from Phoenix Pharmaceuticals (Belmont, Calif.). Dose-response curves were calculated using GraphPad Prism (Graph Pad, San Diego). Mean EC50 values of populations of stable clones expressing either wildtype or mutant NPSR were compared using unpaired t-test and p<0.05 was considered significant.
Two cells lines expressing similar levels (measured by radioligand binding; see below) of either NPSR WT or NPSR Ile were chosen for detailed analyses of pharmacological parameters. […] In order to investigate whether this tenfold increase in agonist potency at NPSR lie was a general property of the receptor protein we compared a large number of stable clones expressing either NPSR WT or NPSR Ile^107 by establishing dose-response curves for each construct and calculating mean EC50 values for the populations.
For orientation: A change in cytosolic calcium serves as a functional read-out for many receptors and channels.

Experiment [2] deals with T1, NPSR Ile^107. In words: CRE-luciferase reporter gene assay, HEK 293 cells, NPSR Ile107. It counts as cell-based. As to conditions: transiently transfected HEK cells. The text has this:
HEK 293 cells were stably transfected with a reporter gene containing 6 copies of a cAMP response element (CRE; sequence […]) in front of a luciferase reporter gene (Promega) cloned into pcDNA3.1 neo. One stable clone showing robust induction of reporter gene expression after forskolin challenge was chosen for further experiments. The different NPSR isoform cDNAs (cloned into pcDNA3.1 hygro) were transfected into these cells using lipofectamine and stable clones were selected. The same cells and procedures were also used for transient transfection. For induction of reporter gene expression cells were plated in 96-well plates and incubated with agonist for 5 hours in serum-free medium, followed by aspiration of the medium and cell lysis with 25 mM Tris-phosphate, pH 7.8, 2 mM dithiothreitol, 2 mM 1,2-diaminocyclohexane-N,N,N′,N′,-tetraacetic acid, 10% glycerol, 1% Triton X-100. After one freeze-thaw cycle aliquots of supernatant were transferred to white clear-bottom 96-well plates (Greiner) and luciferase content was quantified by bioluminescence (Luc-Screen, Applied Biosystems). Plates were counted in a scintillation counter using bioluminescence settings (MicroBeta, Wallac-Perkin Elmer).
For orientation: Reporter assays use an easily measured gene product as a stand-in for the process of interest.

Experiment [3] deals with Colo205 human colon cancer cells. The experiment in a line: Cell proliferation, [3H]-thymidine incorporation in Colo205 cells. It counts as cell-based. How it is done:
(§1) Cells were seeded in 24-well plates and grown overnight to 60-70% confluency. Following 24 h serum-starvation, 2 μCi of methyl-[^3H] thymidine was added together with increasing concentrations of NPS. 500 nM PGE2 served as a positive control. After 3 h incubation cells were washed 3 times with PBS and then lysed with 0.5 N NaOH. The lysate was neutralized with 0.5 N HCl and aliquots were counted in a liquid scintillation counter for incorporated radioactivity.

In experiment [4] the test system is human colon cancer cell line DLD-1. The experiment in a line: Cell proliferation, [3H]-thymidine incorporation in DLD-1 cells (negative control line). The class given is cell-based. Conditions: no NPSR transcripts. The protocol:
as §1
A general note: Dividing cells build labelled thymidine or BrdU into new DNA.

Regarding “NPS: neuropeptide S, endogenous NPSR ligand; species of the peptide not stated at the place of the result (SFRNGVGTGMKKTSFQRAKS)”, the locomotor activity entry in the experiment on C57Bl/6 mice (0.1 nmole i.c.v.) and in the experiment on C57Bl/6 mice (1 nmole i.c.v.) was “significant increase” throughout. Besides, in the experiment on C57Bl/6 mice (0.1 and 1 nmole i.c.v., mice), the “total distance traveled, percentage of time moving, number of rearing events and center entries” value was “significantly increased”. For the same substance, in the experiment with NPSR Ile^107 [1], the “efficacy at NPSR Ile107 as compared to the wildtype receptor” value was “ten-fold”. The “maximum of reporter gene expression relative to NPSR WT or NPSR C-alt” value with NPSR Ile^107 [2] is on record as “about 2 fold”. Further, the “doses producing maximal thymidine incorporation” value in experiment [3] is 0.1 to 10 nM. Also, the thymidine incorporation result in experiment [3] (3 h incubation) is “dose-dependent stimulation”; in experiment [4] it was “no NPS-dependent thymidine incorporation”.
